The target in this experiment is Protein 3a (Severe acute respiratory syndrome coronavirus 2, UniProt P0DTC3). Briefly: two-electrode voltage clamp, X. laevis oocytes. The conditions noted are these: read-out: % block at 10 μM. (In two-electrode clamp one electrode senses voltage and the other passes current.)
Chain of Protein 3a (P0DTC3 whole entry): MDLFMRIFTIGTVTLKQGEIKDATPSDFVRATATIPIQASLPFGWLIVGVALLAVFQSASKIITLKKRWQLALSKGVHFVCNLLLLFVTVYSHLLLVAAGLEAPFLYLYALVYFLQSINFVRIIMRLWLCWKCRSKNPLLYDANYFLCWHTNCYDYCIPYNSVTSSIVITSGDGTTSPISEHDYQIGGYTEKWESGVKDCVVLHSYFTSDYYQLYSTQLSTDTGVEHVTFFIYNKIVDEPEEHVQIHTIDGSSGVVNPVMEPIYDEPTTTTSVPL

In the case of `c1ccc2c(c1)Cc1ccccc1O2` [xanthene], the inhibition at 10 µM came out at 20%.

These data come from publication PMC8636635 (Communications Biology, 2021).
